According to paper PMC6145453 (ACS infectious diseases, 2018):
Entries after “also recorded” stand apart in the source; their conditions may differ.

How the values were obtained:
[1] = test system: A/Brisbane/59/2007-R (oseltamivir resistant); experiment: microbe, parasite or virus in culture; format: cell-based; settings: Influenza A virus, H1N1, A549, 24 h
[2] = target: NP (rY40F WSN virus infected A549 cells) (Influenza A virus, UniProt P15682, G34D/P283S/Y40F); format: cell-based
[3] = test system: rWSN-NP/Y40F virus; format: cell-based, influenza A virus
[4] = test system: influenza A/WSN/33 virus; format: cell-based

Q: With CC(C)(C)c1ccc(C(=O)Nc2ccc(NC(=O)c3ccc(C(C)(C)C)cc3)cc2)cc1 [S119, N,N′-(1,4-Phenylene)bis(4-(tert-butyl)benzamide)] as the molecule, how does the IC50 [1] read?
A: > 50 µM

Q: And the “effect on NP oligomerization” value [2]?
A: unaffected

Q: What about the “resistance phenotype of Y40F mutant virus” value (from here on “resistance phenotype”) [3] of the same molecule?
A: resistant phenotype

Q: What about the “maximum virus inhibition while maintaining enough virus production for passages” value [4] of the same molecule?
A: 3 logs

Q: How did the IC50 [1] turn out when CC(C)(C)c1ccc(C(=O)Nc2ccc(Nc3ccccc3)cc2)cc1 [S119-8, 4-(tert-butyl)-N-(4-(phenylamino)-phenyl)benzamide] was run?
A: 3.85 µM

Q: What about the “resistance phenotype” value [3] of the same molecule?
A: maintained resistance; also recorded: retains the same Y40F resistant phenotype

Q: Cc1onc(-c2ccccc2)c1C(=O)N1CCN(c2ccc([N+](=O)[O-])cc2Cl)CC1 [nucleozin, reference compound] was tested. Which “effect on NP oligomerization” value [2] did it give?
A: altered

Q: And the “resistance phenotype” value [3]?
A: minor resistance phenotype
